The record followed here is patent US11124523B2, “2,6-dioxaspiro [4,5] decane derivatives and preparation method therefor and pharmaceutical applications thereof” (SHANDONG LUYE PHARMACEUTICAL CO., LTD., priority 2017, dated 2021).

Structures can show the parent of a compound that is named as a salt.

The target of series [1] is T1, human μ-subtype opioid receptor (hMOR) (Homo sapiens (Human), UniProt P35372). Nature of the series: MOR cAMP agonist activity test. Format: cell-based. As to conditions: for Emax: maximum effect of enkephalin DAMGO was 100%. Here is the method: Test 1: MOR cAMP Agonist Activity Test
1.1 Experimental Purpose: To test the cAMP agonist activity of the compounds of the present disclosure on the human μ-subtype opioid receptor (hMOR).
a. Compound samples were dissolved in DMSO to a storage concentration of 10 mM.
(§1) b. A series of diluted samples were formulated on a 384-well LDV plate. A total of 11 concentration points were obtained by 3.162-fold gradient dilution.
c. The series of diluted samples were transferred to an experimental plate (Corning-3824) by using an Echo machine, wherein 30 nL was transferred corresponding to each well.
The experiment was performed using a cAMP detection kit from Cisbio (Cisbio #62AM4PEJ).
a. Assay buffer and stimulation buffer (STB) required for the experiment were formulated.
Stimulation Buffer: formulated with the assay buffer, containing 5 μM NKH477 (CAS: 138605-00-2) and 200 μM IBMX (3-isobutyl-1-methylxanthine)
b. […] The number of cells in the well was 10,000 cells/well.
c. The experimental plate was placed in a 37° C. constant-temperature incubator for incubation. The incubation was performed for 40 minutes.
d. A cAMP standard concentration curve was prepared. The first concentration point was at 2848 nM, and a total of sixteen detection concentrations were obtained by 4-fold gradient dilution. There were three replicates for each concentration point.
e. The cAMP detection kit from Cisbio was provided therein with a d2-labeled cAMP reagent (d2 reagent) and an Eu-labeled cAMP antibody reagent (Crypate reagent). The above two reagents were formulated according to the kit instructions, and then added to the sample experimental plate and to the cAMP standard concentration experimental plate, respectively. It was necessary to add 5 μL of the d2 reagent and then 5 μL of the Cryptate reagent to each well.
f. After the experimental plates were left at room temperature for 60 minutes, the experimental plates were read on the Envision.

For series [2], the target named is T1, human μ-subtype opioid receptor (hMOR). Nature of the series: MOR β-arrestin-2 agonist activity test. Format: cell-based. As to conditions: for Emax: maximum effect of enkephalin DAMGO was 100%, about 0% = no actual agonist activity. The method, then: Test 2: β-Arrestin-2 Agonist Activity Test
2.1 Experimental Purpose: To test the β-arrestin-2 agonist activity of the compounds of the present disclosure on the human μ-subtype opioid receptor (hMOR).
a. All samples were dissolved in DMSO to a storage concentration of 10 mM.
as §1
c. The series of diluted samples were transferred to an experimental plate by using an Echo machine, wherein 60 nL of the compound was transferred corresponding to each well.
d. 60 nL of 3.33 mM DAMGO (as HPE) and 60 nL of DMSO (as ZPE) were transferred to the corresponding positions on the experimental plate by using the Echo machine.
The experiment was performed using PathHunter Detection Kit from DiscoveRX Cooperation (DiscoveRX #93-0213C3)
a. Assay buffer and PathHunter detection reagent required for the experiment were formulated.
Assay Buffer: 1×DPBS buffer
PathHunter Detection Reagent: The kit was provided therein with three constituents.
c. The experimental plate was centrifuged at 300 rpm for 30 s and incubated at room temperature for 2 hours.
d. 6 μL of the PathHunter detection reagent was added to each well of the experimental plate.
e. The experimental plate was centrifuged at 300 rpm for 30 seconds, then left at room temperature for 60 minutes, and then read on the Envision.

A short description of series [3]: Metabolic stability in liver microsomes. It counts as in vitro ADME. The settings on record: pH 7.4; human liver microsomes 0.5 mg protein/mL; 45 mg microsome protein/g liver, 20 g liver/kg; read-out: Intrinsic Clearance CLint(liver) in Human Liver. The method, then: Test 3: Metabolic Stability in Liver Microsomes
3.1 Experimental Purpose: To test the metabolic stability of the compounds of the present disclosure in human liver microsomes
a. All samples as well as testosterone, diclofenac and propafenone acting as reference substances were dissolved in DMSO to a storage concentration of 10 mM.
b. Intermediate Solution: 5 μL of the substance to be tested or the reference substance was diluted with 45 μL of DMSO (with 450 μL of 1:1 methanol/water).
c. Working Solution: the intermediate solution was diluted with 450 μL of 100 mM potassium phosphate buffer solution (pH 7.4).
Assay Buffer: 100 mM potassium phosphate buffer (pH 7.4) • 10 mM MgCl2
Liver Microsome Solution (final concentration: 0.5 mg protein/mL):
Human liver microsomes, obtained from BD, Cat No. 452117, Lot No. 38291
b. 10 μL of the working solution containing the substance to be tested or the reference substance was added to each of plates (T0, T5, T10, T20, T30, T60, NCF60).
c. The liver microsome solution was dispensed into a 96-well plate in an amount of 680 μL/well, then 80 was added, and then T was added to each of the plates. The above incubation plate was placed at 37° C. and pre-incubated for approximately 10 minutes.
d. 10 μL of 100 mM potassium phosphate buffer was added to each well in the NCF60 plate.
e. After the pre-incubation was finished, the NADPH regeneration system working solution was dispensed into the 96-well plate in an amount of 90 μL/well, and then added to each of the plates in an amount of 10 μL/well to start the reaction.
f. The plates were incubated for an appropriate time (e.g., 5, 10, 20, 30, or 60 minutes).
g. The stop solution (refrigerated at 4° C., containing 100 ng/mL Tolbutamide and 100 ng/mL Labetalol) was added to each sample well in an amount of 300 μL/well.
h. The sample plates were shaken well for about 10 minutes and centrifuged at 4,000 rpm for 20 minutes at 4° C. During the centrifugation, 300 μL of HPLC water was added to each well, and 100 μL of the supernatant was taken for LC-MS/MS analysis.
T1/2 and Clint(mic) were calculated by the following formula: […]
Each gram of liver contained 45 mg of microsome protein, and the liver weight was 20 g/kg in a human.
Ct was the concentration at time t, t was the incubation time, C0 was the concentration at time 0, Ke was an elimination rate constant, Clint(mic) was the intrinsic clearance in liver microsomes, and Clint(liver) was the intrinsic clearance in liver. CLint(mic)=0.693/half-life/mg of microsome protein per mL(concentration of microsomes during incubation) CLint(liver)=CLint(mic)×mg of microsome protein/g of liver weight×a ratio of liver weight to body weight 3.4 Test Results
A general note: Microsomes from liver hold many membrane-bound enzymes, among them those of drug oxidation.

Series [4] can be described thus: Pharmacokinetics of the compounds in rats. Format: in vivo, rat. Here is the method:
6.1 Experimental Purpose: To measure, using a LC/MS/MS method, the medicament concentrations of the compound in plasma and specific tissues at different time points after the compound was administered by a single intravenous injection (IV) to 7-9-week-old male SD rats used as test animals, to study on the pharmacokinetic behavior of the compound of the present disclosure in rats, and to evaluate the pharmacokinetic characteristics thereof. 6.2 Compound Formulation
Each of them was formulated at a concentration of 1 mg/mL and was used for IV (intravenous injection) administration.
The actual weights of the rats were weighed on the day of administration and volumes to be administered were calculated. The above formulated solutions to be administered were administered by injection into caudal veins of rats.
About 0.2 mL of whole blood samples were collected by means of jugular vein puncture at the time set in the experimental protocol, and the actual blood collection time was recorded in the experimental records. All the blood samples were added to labeled plastic centrifuge tubes to which K2-EDTA anticoagulant was added in advance. After the blood samples were collected, they were centrifuged at 3,000 g for 10 minutes at 4° C. to prepare the supernatant plasma, and the plasma was stored at −20° C. or a lower temperature for LC-MS/MS analysis.
The concentrations of the compounds in rat plasma were measured by using high-performance liquid chromatography-tandem mass spectrometry (LC-MS/MS). The retention durations of the compounds and internal standard, chromatogram acquisition, and integration of chromatograms were processed using the software Analyst (Applied Biosystems), and data statistics were processed using the software Watson LIMS (Thermo Fisher Scientific) or Analyst (Applied Biosystems). The plasma concentration was processed using a non-compartmental model of WinNonlin™ Version 6.3 (Pharsight, Mountain View, Calif.) which was a pharmacokinetic software, and the pharmacokinetic parameters were calculated using a linear logarithmic trapezoidal method.

The mark [5] stands for this setting: >30000 nM = greater than the highest detection concentration, read-out: MOR β-arrestin-2 EC50.

On to `c1ccc([C@]2(CCN[C@H]3CCCc4ccccc43)CCO[C@]3(CCOC3)C2)nc1` [(+)-27], for which the EC50 was 0.8 nM in series [1] and > 30000 nM in series [2] (setting [5]). For the same compound, the Emax was 91% in series [1] and ~0% in series [2].
On to `Fc1ccc([C@]2(CCNCc3ccc(Cl)cc3)CCO[C@]3(CCOC3)C2)nc1` [(+)-17], for which the values for the EC50 in series [1] and in series [2] (setting [5]) were 8.9 nM and > 30000 nM, respectively. Besides, the Emax in series [1] is 78.5%; in series [2], ~0%.
For the compound `COc1ccsc1CNCC[C@@]1(c2ccc(F)cc2)CCO[C@]2(CCOC2)C1` [(+)-3], the values for the EC50 in series [1] and in series [2] (setting [5]) were 3 nM and > 30000 nM, respectively. Also, the Emax in series [1] is 82%; in series [2] it was ~0%. Also, the CLint scaled in series [3] amounted to 39 mL/min/kg.
`Fc1ccc([C@]2(CCNCc3cccs3)CCO[C@]3(CCOC3)C2)cc1` [(+)-14]: the Emax in series [2] is ~0%.
Take `c1ccc([C@]2(CCNCc3cc4c(s3)CCC4)CCOC3(CCCC3)C2)nc1` [compound 2, reference compound]: the Emax in series [1] worked out at 105%; in series [2] it was 35.2%. This compound had an EC50 in series [2] of 500 nM.
Regarding `Fc1ccc([C@]2(CCNCc3scc4c3CCC4)CCO[C@]3(CCOC3)C2)nc1` [(+)-5], the Emax in series [1] was 96.5%; in series [2], ~0%. Also, the “Apparent Clearance Cl” value in series [4] (male SD rats, single IV, mg/Kg: Comparative Compound 1 1.80, (+)-5 2.40, (+)-16 1.76, HCl salt of (+)-23 1.71) came out at 58.9 mL/min/kg. Besides, the Vd in series [4] (male, SD, rat, plasma, iv, read-out: Apparent Distribution Volume Vd) turned out to be 3.6 L/kg. For the same compound, in series [4] (male, SD, rat, plasma, iv, read-out: Area under the Curve AUC0-inf), the AUC(0-inf) stood at 1.4 µM·h. Also, in series [4] (male, SD, rat, plasma, iv, read-out: Hal-life T1/2 (converted)), the half-life is 54 min. Moreover, the C0 in series [4] (male, SD, rat, plasma, iv, read-out: Initial Concentration C0) came to 1810 nM. Further, the “Brain/Plasm Ratio B/P ratio” value in series [4] (rats, IV, sampling point […], mg/Kg: Comparative Compound 1 0.56, (+)-5 2.40, (+)-16 1.76, HCl salt of (+)-23 1.71) stood at 2.19. Besides, in series [2] (setting [5]), the 50% effective concentration (EC50) was > 30000 nM.
As to `Clc1ccc(CNCC[C@@]2(c3ccccn3)CCO[C@]3(CCOC3)C2)cc1Cl` [(+)-20], the EC50 in series [1] is 3.1 nM; in series [2] (setting [5]), > 30000 nM. Also, the figures for the Emax in series [1] and in series [2] were 99.6% and ~0%, respectively.
For `c1ccc([C@]2(CCNCc3scc4c3COC4)CCO[C@]3(CCOC3)C2)nc1` [(+)-7] the same measures were 14.1 nM, > 30000 nM, 90.4% and ~0%.
For `c1ccc([C@]2(CCNCc3cccc4c3CCC4)CCO[C@]3(CCOC3)C2)nc1` [(+)-19] the same measures were 4.5 nM, > 30000 nM, 69.9% and ~0%.
`Fc1ccc([C@]2(CCNCc3scc4c3CCC4)CCO[C@]3(CCOC3)C2)cc1` [Formate Salt of (+)-4]: the results for the EC50 in series [1] and in series [2] (setting [5]) were 0.07 nM and > 30000 nM, respectively. In addition, in series [2], the Emax was ~0%.
For `Fc1ccc([C@]2(CCNCc3cc(Cl)cc(Cl)c3)CCO[C@]3(CCOC3)C2)nc1` [Hydrochloride Salt of (+)-24], the EC50 in series [1] is 0.2 nM; in series [2] (setting [5]), > 30000 nM. The figures for the Emax in series [1] and in series [2] were 95% and ~0%, respectively.
Regarding `c1ccc([C@]2(CCN[C@H]3CCc4ccccc43)CCO[C@]3(CCOC3)C2)nc1` [(+)-25], the Emax in series [1] is 90%; in series [2], ~0%. For the same compound, in series [2] (setting [5]), the EC50 was > 30000 nM.
On to `Fc1ccc([C@]2(CCNCc3scc4c3COC4)CCO[C@]3(CCOC3)C2)cc1` [Hydrochloride Salt of (+)-12], for which the EC50 was 6.8 nM in series [1] and > 30000 nM in series [2] (setting [5]). The maximum response (Emax) in series [2] was ~0%.
As to `Clc1cc(Cl)cc(CNCC[C@@]2(c3ccccn3)CCO[C@]3(CCOC3)C2)c1` [(+)-21], the EC50 in series [1] is 2.2 nM; in series [2] (setting [5]), > 30000 nM. In addition, the Emax is 92.3% in series [1] and ~0% in series [2].
Turning to `Cc1cc(C)cc(CNCC[C@@]2(c3ccccn3)CCO[C@]3(CCOC3)C2)c1` [(+)-10], the EC50 in series [1] was 11.6 nM; in series [2] (setting [5]) it was > 30000 nM. In addition, the Emax in series [1] is 96.6%; in series [2], ~0%.
On the same counts, the results for `Fc1ccc([C@]2(CCN[C@H]3CCCc4ccccc43)CCO[C@]3(CCOC3)C2)nc1` [(+)-26] are 0.2 nM, > 30000 nM, 96% and ~0%.
For `Cc1ccsc1CNCC[C@@]1(c2ccc(F)cc2)CCO[C@]2(CCOC2)C1` [(+)-13] the same measures were 4.1 nM, > 30000 nM, 61.2% and ~0%.

For orientation: EC50 means the concentration giving half of the maximal effect. By Emax is commonly meant the size of the effect at its maximum, as opposed to the concentration needed.
